The values below come from patent US4717722A, “Substituted 1-oxa-dethiacephalosporins as anti-inflammatory and antidegenerative agents” (Merck & Co., Inc., priority 1984, dated 1988).

The structures appear in SMILES notation.

This assay addresses T1, Human Polymorphonuclear Leukocyte Elastase (Homo sapiens, UniProt P08246).
T1 construct: Crude extract of human polymorphonuclear leukocytes (PMN) containing elastase activity; endogenous in cells; host or cells: human polymorphonuclear leukocytes (PMN), crude extract
T1 sequence (P08246 30-247 limits assumed): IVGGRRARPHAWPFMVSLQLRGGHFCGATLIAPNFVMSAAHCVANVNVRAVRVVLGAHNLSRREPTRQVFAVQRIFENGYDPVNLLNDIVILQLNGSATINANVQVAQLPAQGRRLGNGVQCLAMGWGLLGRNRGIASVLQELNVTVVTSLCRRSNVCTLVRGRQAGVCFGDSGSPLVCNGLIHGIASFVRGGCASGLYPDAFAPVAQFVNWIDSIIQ
The experiment in a line: Inhibition of human polymorphonuclear leukocyte elastase via hydrolysis of Boc-AAPAN. In kind it is biochemical. The following applies: effective dosage for 50% inhibition of the enzyme activity 2 minutes after zero time; crude PMN extract, 0.2 mM Boc-AAPAN, pH 7.5; read-out: ED50 (the source's name) (converted). The procedure:
Enzyme Assays for the Inhibition of Human Polymorphonuclear Leukocyte Elastase Via Hydrolysis of N-t-Boc-alanyl-alanyl-prolylalanine-p-nitroanilide Reagents
0.05 M TES (N-tris[hydroxymethyl]methyl-2-amino-ethanesulfonic acid) Buffer, pH 7.5.
0.2 mM N-t-Boc-alanyl-alanyl-prolyl-alanine-p-nitroanilide (Boc-AAPAN).
To prepare substrate, the solid (m.w. 550) was first dissolved in 10.0 ml DMSO. Buffer at pH 7.5 was then added to a final volume of 100 ml.
Crude extract of human polymorphonuclear leukocytes (PMN) containing elastase activity.
Inhibitors (cephalosporin sulfone esters) to be tested dissolved in DMSO just before use.
To 1.0 ml of 0.2 mM Boc-AAPAN in a cuvette, 0.01-0.1 ml of DMSO with or without inhibitor was added. After mixing, a measurement was taken at 410 mμ to detect any spontaneous hydrolysis due to presence of test compound. 0.05 Milliliters of PMN extract was then added and the ΔOD/min at 410 mμ was measured and recorded. Beckman model 35 spectrophotometer was used.
Results were reported as ED50, i.e., effective dosage in micrograms per milliliter (μg/ml) for 50% inhibition of the enzyme activity 2 minutes after zero time.
The elastase activity in the crude PMN extract may vary from one preparation to another. A control of each new batch is run, and the volume added in the assay procedure is adjusted according to activity.

Regarding `COC(=O)C1=C(CSc2nnnn2C)COC2N1C(=O)C2(NC(=O)C(C(=O)OC)c1ccc(O)cc1)OC` (stereo not shown), the IC50 is at least 36.5 µM.

On to `COC1(NC(=O)C(C(=O)OCc2ccccc2)c2ccc(O)cc2)C(=O)N2C(C(=O)OCc3ccccc3)=C(C)COC21` (stereo not shown), for which the IC50 is 29 µM.

`CC1=COC2C(NC(=O)c3ccccc3)C(=O)N2C1C(=O)OCc1ccccc1` (stereo not shown): the IC50 is 12.7 µM.

Take `CC1=C(C(=O)OCc2ccccc2)N2C(=O)C(NC(=O)c3ccccc3)C2OC1` (stereo not shown) [C6 H5 CONH]: the IC50 was 51 µM.
